Source: patent US7230023B2, “Water-soluble triazole fungicide” (Sankyo Company, Limited, priority 2001, dated 2007)
In brackets after ≈: the same amount, converted by molar mass.

What was measured:
[1] = test system: Cryptococcus neoformans TIMM 0362; experiment: Antifungal activity against Cryptococcus neoformans, MIC by broth microdilution; format: cell-based; conditions: TIMM0362, yeast nitrogen base medium pH 7.0, 35° C., 48-72 hours, at least 50% growth inhibition, absorbance at 485 nm, read-out: MIC values C.n.
Protocol: (§1) The antifungal activities of compound A were assessed according to the minimum inhibitory concentrations (MICs) which were measured by the methods described below:
Determination of antifungal activity against Cryptococcus neoformans: MICs were determined by the broth microdilution method. Test compound was dissolved in DMSO. Serial two-fold dilution of the test compound was performed with DMSO, and the final dilution was performed with yeast nitrogen base medium (product of Difco Laboratories) buffered to pH 7.0 with 0.165M MOPS. […] Colonies of the test fungi were suspended in physiological saline followed by adjustment to 5.0×10^3 to 2.5×10^4 cells/ml with yeast nitrogen base medium buffered to pH 7.0 with 0.165M MOPS. 100 μl of the fungal suspension and 100 μl of each diluted test compound solution were mixed in each well of microtitre plates, before incubating at 35° C. for 48-72 hours. […] The MICs were defined as the lowest compound concentrations causing at least 50% growth inhibition when compared with the control as measured by light absorbance at 485 nm.

[2] = test system: Aspergillus fumigatus SANK 10569; experiment: Antifungal activity against Aspergillus, MIC by broth microdilution; format: cell-based; conditions: SANK10569, RPMI1640 pH 7.0, 30° C., 24-72 hours, at least 80% growth inhibition, read-out: MIC values A.f.
Protocol: as §1
Determination of antifungal activity against Aspergillus: MICs were determined by the broth microdilution method. Test compound was dissolved in DMSO. Serial two-fold dilution of the test compound was performed with DMSO, and then the final dilution was performed with RPMI1640 medium (product of Dainippon Pharmaceutical Co., Ltd.) which was buffered to pH 7.0 with 0.165M MOPS. […] Colonies of the test fungi were suspended in physiological saline followed by adjustment to about 1.0×10^4 cells/ml with RPMI1640 medium which was buffered to pH 7.0 with 0.165M MOPS. 100 μl of the fungal suspension and 100 μl of each diluted test compound solution were mixed in each well of microtitre plates, before incubating at 30° C. for 24-72 hours. […] The MICs were defined as the lowest compound concentrations causing at least 80% growth inhibition when compared with the control.

[3] = test system: Candida albicans TIMM 3165; experiment: Antifungal activity against Candida, MIC by broth microdilution; format: cell-based; conditions: TIMM3165, RPMI1640 pH 7.0, 35° C., 24-72 hours, at least 80% growth inhibition, read-out: MIC values C.a. (3)
Protocol: as §1
(§2) Determination of antifungal activity against Candida: The MICs were determined by the broth microdilution method. Test compound was dissolved in dimethyl sulfoxide (DMSO). Serial two-fold dilution of the test compound was performed with DMSO, and then the final dilution was performed with RPMI1640 medium (product of Dainippon Pharmaceutical Co., Ltd.) which was buffered to pH 7.0 with 0.165M 3-(morpholino)propanesulfonic acid (MOPS). […] Colonies of the test fungi were suspended in physiological saline followed by adjustment to 5.0×10^2 to 2.5×10^3 cells/ml with RPMI1640 medium which was buffered to pH 7.0 with 0.165M MOPS. 100 μl of the fungal suspension and 100 μl of each diluted test compound solution were mixed in each well of microtitre plates, before incubating at 35° C. for 24-72 hours. […] The MICs were defined as the lowest compound concentrations causing at least 80% growth inhibition when compared with the control.

[4] = test system: Candida albicans ATCC 64550; experiment: as above; format: cell-based; conditions: ATCC64550, RPMI1640 pH 7.0, 35° C., 24-72 hours, at least 80% growth inhibition, read-out: MIC values C.a. (1)
Protocol: as §1, §2

[5] = test system: Candida albicans TIMM 3164; experiment: as above; format: cell-based; conditions: TIMM3164, RPMI1640 pH 7.0, 35° C., 24-72 hours, at least 80% growth inhibition, read-out: MIC values C.a. (2)
Protocol: as §1, §2

[6] = test system: human liver microsome preparation; experiment: Test to confirm formation of active substance: incubation with human liver microsome preparation, HPLC; format: in vitro ADME; conditions: human liver microsome preparation 0.5 mg protein/ml, initial concentration 1 μM, 37° C.
Protocol: The test compound was dissolved in a human liver microsome preparation (0.5 mg protein/ml, GENTEST Corporation) at an intial concentration of 1 μM and the mixture was incubated at 37° C.
A small aliquot of the sample was collected at certain time intervals, and the rate of persistence of the original compound and the rate of formation of compound A, the active substance with the chemical structure shown below, were determined by HPLC.
The results of incubating the compound of Example 5 (the disodium salt of example number 5-16) with the human liver microsome preparation are shown in FIG. 1.

Row | MIC [1] [µg/mL] | MIC [2] [µg/mL] | MIC [3] [µg/mL] | MIC [4] [µg/mL] | MIC [5] [µg/mL] | rate of formation of compound A (active substance) ([6]; after incubation for 30 min) | SMILES | rate of persistence of the original compound [6]
1 | ≤ 0.008 | 0.031 (≈ 0.0571 µM) | 0.063 (≈ 0.116 µM) | 0.25 (≈ 0.461 µM) | ≤ 0.008 |  | C[C@@H](S[C@H]1CO[C@H](/C=C/C=C/c2ccc(C#N)cc2F)OC1)[C@](O)(Cn1cncn1)c1ccc(F)cc1F [Compound A] | 
2 |  |  |  |  |  | completely converted to compound A | C[C@@H](S[C@H]1CO[C@H](/C=C/C=C/c2ccc(C#N)cc2F)OC1)[C@@](Cn1cncn1)(OC(=O)c1cc(C#N)ccc1COP(=O)([O-])[O-])c1ccc(F)cc1F.[Na+].[Na+] [Example 5, Disodium 4-cyano-2-[[(1R,2R)-2-[[trans-2-[(1E,3E)-4-(4-cyano-2-fluorophenyl)-1,3-butadienyl]-1,3-dioxan-5-yl]thio]-1-(2,4-difluorophenyl)-1-[(1H-1,2,4-triazol-1-yl)methyl]propoxy]carbonyl]benzyl phosphate] | diminished immediately after the incubation started
